Test [1] has as its system sFRP-1. Briefly: ELISA of peptide/alkaline phosphatase fusion proteins binding to sFRP-1. Set-up: species or system human. The conditions noted are these: bacterial broths, sFRP-1-coated versus BSA-coated wells, pNPP at 405 nm. The protocol: Synthetic oligonucleotides encoding peptides of interest were ligated into the bacterial alkaline phosphatase fusion vector, pMY101, which had been digested with Sal I and Xho I (Yamabhai and Kay, Anal Biochem. 247:143-151, 1997). All recombinants were confirmed by DNA sequence analysis. Bacteria (E. coli, strain DH5αF′) transformed with the peptide/AP constructs were grown in Luria broth containing ampicillin (50 μg/mL) to an optical density of 0.5 (at 600 nm), treated with 1 mM isopropyl-β-D-thiogalactopyranoside and then incubated overnight at 37° C. Conditioned medium containing peptide/AP chimera was recovered by centrifugation at 7000 g for 15 minutes. Chimeric proteins in conditioned medium were stable when stored for a few weeks at 4° C. or for several months when stored at −80° C.
ELISA experiments were generally performed as previously described (Uren et al., J. Biol. Chem. 275:4374-4382, 2000), with modifications depending on the sFRP binding partner to be tested. Typically, wells were coated with 0.5 or 1 μg of sFRP-1, blocked with BSA (0.2%, 1%, or 4%) and then incubated with putative binding partner overnight at room temperature. When investigating the binding of peptide/AP chimeras, after aspiration of bacterial broths, wells were washed and incubated with p-nitrophenolphosphate (pNPP). Color development was determined at 405 nm with an ELISA reader. […] Following overnight incubation at room temperature, RANKL solutions were aspirated and bound RANKL was detected by sequential incubations with primary antibody to RANKL, secondary antibody coupled with AP and pNPP. […]
A set of peptide-alkaline phosphatase fusion proteins containing the peptide motifs (SEQ ID NOS: 14, 11, and 27) were generated. […] This qualitative difference between A-C2 (SEQ ID NO: 14), A-E4 (SEQ ID NO: 1), and B-B9 (SEQ ID NO: 27) derivatives was consistent with a quantitative difference noted during the ELISA screening of the respective phage. […]
Background: ELISA stands for enzyme-linked immunosorbent assay.

In test [2] the test system is sFRP-1. Briefly: Competition ELISA: soluble peptides against peptide/AP chimera binding to sFRP-1. Set-up: species or system human. The conditions noted are these: for inhibition of A-D9/AP chimera binding to sFRP-1: soluble peptide; for inhibition of A-C2/alkaline phosphatase fusion protein binding to sFRP-1: soluble peptide preincubated 30 min with chimera. The protocol:
(§1) ELISA experiments were generally performed as previously described (Uren et al., J. Biol. Chem. 275:4374-4382, 2000), with modifications depending on the sFRP binding partner to be tested. Typically, wells were coated with 0.5 or 1 μg of sFRP-1, blocked with BSA (0.2%, 1%, or 4%) and then incubated with putative binding partner overnight at room temperature. When investigating the binding of peptide/AP chimeras, after aspiration of bacterial broths, wells were washed and incubated with p-nitrophenolphosphate (pNPP). Color development was determined at 405 nm with an ELISA reader. For competition experiments, soluble peptides were preincubated with peptide/AP chimeras in bacterial broth for 30 min at room temperature prior to transfer into ELISA wells coated with sFRP-1 or BSA. When testing RANKL binding to sFRP-1, serial dilutions of soluble RANKL were assayed in replicate. Following overnight incubation at room temperature, RANKL solutions were aspirated and bound RANKL was detected by sequential incubations with primary antibody to RANKL, secondary antibody coupled with AP and pNPP. Similar experimental designs were employed when other TNFα family members were examined for binding to sFRPs, and when sFRP-1 derivatives or sFRP-2 were the binding targets for RANKL.

Another test has as its system adult mouse spleen cells. Kind of test: RANKL and M-CSF induced osteoclast formation from adult mouse spleen cells. The format is cell-based. On the procedure: (§2) In some instances, experiments were performed either with adult mouse spleen cells or with RAW264.7 cells treated with M-CSF and RANKL as described in Quinn et al., Endocrinology 139:4424-4427, 1998. Where indicated, these assays were conducted in the presence or absence of splenic T cells. T cell fractions were prepared as described in Horwood et al., Journal of Clinical Investigation 101:595-603, 1998.

The subject of test [3] is co-cultures of primary osteoblasts and adult spleen cells. Briefly: Osteoclastogenesis co-culture of primary osteoblasts and adult spleen cells (TRAP+ cells). The format is cell-based, mouse. The conditions noted are these: for effect on TRAP+ multinucleated cells (osteoclast formation): 5 μg/mL with optimal doses of vitamin D3 (10^-8 M) and PGE2 (10^-7 M). On the procedure:
Osteoblastic cells were prepared from the calvaria of newborn mice by digestion with 0.1% collagenase (Worthington Biochemical Co., Freefold, […]) and 0.2% dispase (Godo Shusei, Tokyo, Japan). […] Exp. Med. 182: 1461-1468, 1995). Osteoblastic cells were co-cultured with bone marrow or spleen cells as described previously (Udagawa et al., J. Exp. Med. 182: 1461-1468, 1995). In short, primary osteoblastic cells (2×10^4/well) and nucleated spleen cells (1×10^6/well) or marrow cells (5×10^5/well) were co-cultured in 48-well plates (Corning Glass Inc., Corning, N.Y.) with 0.4 mL of α-MEM (GIBCO/BRL, Grand Island, N.Y.) containing 10% fetal bovine serum (Cytosystems, Castle Hill, NSW, Australia) in the presence of test chemicals. Cultures were incubated in quadruplicate and cells were replenished on day 3 with fresh medium. Osteoclast formation was evaluated after culturing for 6-7 days. Adherent cells were fixed and stained for tartrate-resistant acid phosphatase (TRAP), and the number of TRAP-positive osteoclasts was scored as described (Udagawa et al., J. Exp. Med. 182: 1461-1468, 1995). For TRAP staining, adherent cells were fixed with 4% formaldehyde in PBS for 3 minutes. After treatment with ethanol-acetone (50/50, vol/vol) for 1 minute, the well surface was air dried and incubated for 10 minutes at room temperature in an acetate buffer (0.1 M sodium acetate, pH 5.0) containing 0.01% naphthol AS-MX phosphate (Sigma) as a substrate and 0.03% red violet LB salt (Sigma) as a stain for the reaction product in the presence of 50 mM sodium tartrate. TRAP-positive cells appeared dark red, and those with three or more nuclei were scored as multinucleated and considered as osteoclasts. Validation of osteoclast formation was achieved using the specific marker of calcitonin receptor (CTR) expression and bone resorption. CTR expression was determined either by autoradiography with ^125I-salmon calcitonin or by immunohistochemical localization using an array of antibodies we have developed as described by Quinn et al., Bone 25:1-8, 1999.

The subject of test [4] is RAW264.7 cells. Kind of test: RANKL-induced osteoclast formation in RAW264.7 cells. The test is classed as cell-based. The conditions noted are these: RANKL 50 ng/mL, T cells added; 5, 1 and 0.5 μg/mL. The protocol:
as §2
(§3) The effect of bacterially expressed CRD was assessed in three different cell culture models of osteoclast formation. These were: (1) bone marrow cells+RANKL+M-CSF, (2) the macrophage/monocyte cell line RAW264.7+RANKL, and (3) RAW264.7+TNFα+TGFβ (Horwood et al., Journal of Immunology 166:4915-4921, 2001; Quinn et al., Journal of Bone and Mineral Research. 16, 1787-1794, 2001).

For test [5], the system named is AC2/alkaline phosphatase chimera. Briefly: ELISA of sFRP-1 deletion mutants binding to AC2/alkaline phosphatase chimera. The conditions noted are these: sFRP-1 deletion mutants coated on ELISA wells. The protocol: as §1, with “When testing RANKL binding to sFRP-1, serial dilutions of soluble RANKL were assayed in replicate.” left out, “Similar experimental designs were employed when other TNFα family members were examined for binding to sFRPs, and when sFRP-1 derivatives or sFRP-2 were the binding targets for RANKL.” left out
ELISA experiments were performed essentially as described above with a series of sFRP-1 deletion mutants (in Uren et al., J. Biol. Chem., 275: 4374-4382, 2000) to determine what region(s) of the protein were required for binding to the AC2/alkaline phosphatase chimera. […] Little binding was detected with derivatives that contained the CRD alone or the C-terminal region alone.

The target in another test is T1, RANKL (Homo sapiens, UniProt O14788).
T1 construct: For ELISA assays, recombinant soluble RANKL and TRAIL, and antibodies directed against these proteins were obtained from PeproTech; purchased PeproTech (Rocky Hill, N.J.)
T1 sequence (O14788 140-317): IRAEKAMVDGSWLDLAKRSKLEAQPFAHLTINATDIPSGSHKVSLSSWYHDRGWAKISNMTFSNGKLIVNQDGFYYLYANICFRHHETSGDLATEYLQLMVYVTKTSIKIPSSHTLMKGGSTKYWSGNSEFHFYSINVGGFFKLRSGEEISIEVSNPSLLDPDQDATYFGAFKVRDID
Briefly: ELISA of soluble RANKL binding to wells coated with sFRP-1, sFRP-1 derivatives or sFRP-2. The conditions noted are these: ELISA, coated wells versus BSA. The protocol: as §1
The possibility that sFRP-1 (SEQ ID NO: 3) and RANKL interact directly with each other was tested using an ELISA assay. […] RANKL was then incubated in these wells and in adjacent wells that had only been treated with BSA.

Test [6] relates to RAW264.7 cells. Briefly: RANKL-independent (TNFα-dependent) osteoclast formation in RAW264.7+TNFα+TGFβ. The format is cell-based. The conditions noted are these: present during the first three days of culture. On the procedure: The effect of sFRP-1 was assessed upon a RANKL-independent method of osteoclast formation using the monocyte/macrophage cell line RAW264.7 (Quinn et al., Journal of Bone and Mineral Research. 16, 1787-1794, 2001) and was compared with that of osteoprotegerin (FIG. 14).
as §3

Entries after “also recorded” stand apart in the source; their conditions may differ. Where no end group is shown, it is not given here.

“A-C2 (SEQ ID NO: 14)/alkaline phosphatase fusion protein: A-C2 peptide fused to bacterial alkaline phosphatase (QGTLVDGRWLQL; also: fused to bacterial alkaline phosphatase)”: the “specific binding of peptide/alkaline phosphatase fusion protein to sFRP-1” value with sFRP-1 [1] is “strong, highly specific binding”.

In the case of “A-D9/AP chimera: A-D9 peptide fused to alkaline phosphatase (WECAMYDGRCLT; cysteine pairing not given here; also: fused to alkaline phosphatase)”, in the test on sFRP-1 [1], the “specific binding of peptide/alkaline phosphatase fusion protein to sFRP-1” value is reported as “bound specifically”.

For the molecule “Alkaline phosphatase: alkaline phosphatase itself, control for the fusion proteins [reference compound]”, the “specific binding of peptide/alkaline phosphatase fusion protein to sFRP-1” value in the test on sFRP-1 [1] is on record as “no preferential binding”.

QGTLVDGRWLQL [A-C2]: in the test on sFRP-1 [2], the “inhibition of A-D9/AP chimera binding to sFRP-1” value was “could inhibit binding” and the “inhibition of A-C2/alkaline phosphatase fusion protein binding to sFRP-1” value is “dose-dependent inhibition”. Besides, in the test with adult mouse spleen cells (T cells removed from adult spleen cells with antibody-coupled magnetic beads), the “effect on osteoclast formation, T cells removed” value is “no additional response”. Further, the “effect on osteoclast production” value with adult mouse spleen cells (peptide present during days 0-3, RANKL 50 ng/mL and M-CSF 25 ng/mL) is “caused an increase in osteoclast production”. Moreover, the “effect on TRAP+ multinucleated cells (osteoclast formation)” value in test [3] is “ten-fold increase; also recorded: markedly stimulated”. Further, the “time window of the effect on osteoclast formation” value in test [3] (peptide present for different periods of the culture) was “only had an effect on osteoclast formation when it was present during day 0 to day 3”. Further, in the test on RAW264.7 cells [4], the “stimulation of TRAP+ multinucleated cell differentiation” value was “dose-dependent stimulation”.

In the case of “WECAMYDGRCLT (Peptide that binds sFRP) [A-D9]”, in the test with sFRP-1 [2], the “inhibition of A-D9/AP chimera binding to sFRP-1” value is recorded as “blocked in a dose-dependent manner” and the “inhibition of A-C2/alkaline phosphatase fusion protein binding to sFRP-1” value is recorded as “inhibited binding”.

B1: NHD: netrin homology domain of sFRP-1 (protein, listed as Homo sapiens)
chain: CIAMTPPNATEASKPQGTTVCPPCDNELKSEAIIEHLCASEFALRMKIKEVKKENGDKKIVPKKKKPLKLGPIKKKDLKKLVLYLKNGADCPCHQLDNLSHHFLIMGRKVKSQYLLTAIHKWDKKNKEFKNFMKKMKNHEC
Turning to B1, in test [3], the “effect on TRAP+ multinucleated cells (osteoclast formation)” value was “not further enhanced”.

B2: Δ3 derivative: sFRP-1 deletion mutant containing all of the Fz CRD and a portion of the C-terminal region (protein)
chain: MGIGRTEGGRRGAALGVLLALGGASGRGLGSEYDYVSFQSDIGPYQSGRFYTKPPQCVDIPADLRLCHNVGYKKMVLPNLLEHETMAEVKQQASSWVPLLNKNCHAGTQVFLCSLFAPVCLDRPIYPCRWLCEAVRDSCEPVMQFFGFYWPEMLKCDKFPEGDVCIAMTPPNATEASKPQGTTVCPPCDNELKSEAIIEHLCASEFALRMKIKEVKKENGDKKIVPKKKKPLKLGPIKKKDLQAYVEQKLISEEDLNSAVDHHHHHH
modifications: Fusion protein
notes: sFRP-1 deletion mutant containing all of the Fz CRD and a portion of the C-terminal region
B2: the “binding to the AC2/alkaline phosphatase chimera” value in test [5] is on record as “Optimal binding”.

B3: Al derivative: sFRP-1 deletion mutant that consists essentially of the Fz CRD (protein)
chain: MGIGRTEGGRRGAALGVLLALGGASGRGLGSEYDYVSFQSDIGPYQSGRFYTKPPQCVDIPADLRLCHNVGYKKMVLPNLLEHETMAEVKQQASSWVPLLNKNCHAGTQVFLCSLFAPVCLDRPIYPCRWLCEAVRDSCEPVMQFFGFYWPEMLKCDKFPEGDVCIAMTPQAYVEQKLISEEDLNSAVDHHHHHH
modifications: Fusion protein
notes: sFRP-1 deletion mutant that consists essentially of the Fz CRD
For B3, the “binding to RANKL” value with RANKL is on record as “retained good binding”.

B4: OPG: osteoprotegerin, soluble TNF receptor family factor that binds RANKL (protein, UniProt O00300 22-401, looked up)
Tumor necrosis factor …: ETFPPKYLHYDEETSHQLLCDKCPPGTYLKQHCTAKWKTVCAPCPDHYYTDSWHTSDECLYCSPVCKELQYVKQECNRTHNRVCECKEGRYLEIEFCLKHRSCPPGFGVVQAGTPERNTVCKRCPDGFFSNETSSKAPCRKHTNCSVFGLLLTQKGNATHDNICSGNSESTQKCGIDVTLCEEAFFRFAVPTKFTPNWLSVLVDNLPGTKVNAESVERIKRQHSSQEQTFQLLKLWKHQNKDQDIVKKIIQDIDLCENSVQRHIGHANLTFEQLRSLMESLPGKKVGAEDIEKTIKACKPSDQILKLLSLWRIKNGDQDTLKGLMHALKHSKTYHFPKTVTQSLKKTIRFLHSFTMYKLYQKLFLEMIGNQVQSVKISCL
For B4, the “effect on TNFα-dependent osteoclast formation” value in the test on RAW264.7 cells [6] was “no effect”.

These data come from US8334260B2, “sFRP and peptide motifs that interact with sFRP and methods of their use” (The United States of America as represented by the …, priority 2001, dated 2012).
